Measured values from patent US11180474B2 (BRISTOL-MYERS SQUIBB COMPANY, priority 2016, dated 2021).

Experiments:
human TLR7 = molecular target: T1, human TLR7 (Homo sapiens, UniProt Q9NYK1); experiment: TLR7 inhibition reporter assay (HEK-Blue cells, SEAP reporter, gardiquimod stimulation); assay type: cell-based; conditions: HEK-Blue cells overexpressing human TLR7, gardiquimod 7.5 μM
T1 construct: host or cells: HEK-Blue cells
T1 sequence (Q9NYK1 27-1049): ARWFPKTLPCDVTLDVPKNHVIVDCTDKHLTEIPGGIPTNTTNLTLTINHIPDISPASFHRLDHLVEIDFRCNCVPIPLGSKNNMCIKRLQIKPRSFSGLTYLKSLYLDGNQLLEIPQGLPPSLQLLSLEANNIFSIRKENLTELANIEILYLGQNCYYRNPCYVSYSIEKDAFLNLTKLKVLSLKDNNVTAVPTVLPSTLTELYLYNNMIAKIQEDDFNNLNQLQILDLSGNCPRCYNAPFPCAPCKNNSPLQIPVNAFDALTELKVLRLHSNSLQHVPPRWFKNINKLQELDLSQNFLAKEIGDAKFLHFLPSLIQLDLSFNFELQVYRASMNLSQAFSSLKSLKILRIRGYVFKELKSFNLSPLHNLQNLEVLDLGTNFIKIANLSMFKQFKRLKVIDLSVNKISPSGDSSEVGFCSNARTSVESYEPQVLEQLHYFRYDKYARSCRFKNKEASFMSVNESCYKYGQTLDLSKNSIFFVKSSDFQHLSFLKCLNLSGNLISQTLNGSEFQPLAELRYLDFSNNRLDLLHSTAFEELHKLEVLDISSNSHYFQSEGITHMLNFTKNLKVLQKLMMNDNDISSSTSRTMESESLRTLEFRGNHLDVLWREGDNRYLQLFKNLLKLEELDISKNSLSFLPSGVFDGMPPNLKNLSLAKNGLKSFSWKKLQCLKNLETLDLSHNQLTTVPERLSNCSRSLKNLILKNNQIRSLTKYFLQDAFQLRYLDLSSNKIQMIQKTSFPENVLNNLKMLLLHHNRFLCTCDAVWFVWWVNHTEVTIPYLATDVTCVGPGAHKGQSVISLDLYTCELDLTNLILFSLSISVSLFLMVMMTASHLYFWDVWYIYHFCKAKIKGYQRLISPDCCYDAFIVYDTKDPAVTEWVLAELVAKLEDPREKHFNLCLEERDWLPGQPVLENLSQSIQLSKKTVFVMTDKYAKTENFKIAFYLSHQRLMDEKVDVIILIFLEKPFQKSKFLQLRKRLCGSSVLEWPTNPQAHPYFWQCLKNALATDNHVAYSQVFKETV
How it was run: (§1)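 SEAP readout via HEK-Blue Detection medium after 22 h at 37 °C, 5% CO2 defines inhibition, normalized between agonist-plus-DMSO wells and a reference inhibitor. Compound dose range 0.05 nM–50 μM; TLR7 cells at 15,000/well (gardiquimod), TLR8 at 20,000/well (R848).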

human TLR8 = molecular target: T2, human TLR8 (Homo sapiens, UniProt Q9NR97); experiment: TLR8 inhibition reporter assay (HEK-Blue cells, SEAP reporter, R848 stimulation); assay type: cell-based; conditions: HEK-Blue cells overexpressing human TLR8, R848 15.9 μM
T2 construct: host or cells: HEK-Blue cells
T2 sequence (Q9NR97 27-1041): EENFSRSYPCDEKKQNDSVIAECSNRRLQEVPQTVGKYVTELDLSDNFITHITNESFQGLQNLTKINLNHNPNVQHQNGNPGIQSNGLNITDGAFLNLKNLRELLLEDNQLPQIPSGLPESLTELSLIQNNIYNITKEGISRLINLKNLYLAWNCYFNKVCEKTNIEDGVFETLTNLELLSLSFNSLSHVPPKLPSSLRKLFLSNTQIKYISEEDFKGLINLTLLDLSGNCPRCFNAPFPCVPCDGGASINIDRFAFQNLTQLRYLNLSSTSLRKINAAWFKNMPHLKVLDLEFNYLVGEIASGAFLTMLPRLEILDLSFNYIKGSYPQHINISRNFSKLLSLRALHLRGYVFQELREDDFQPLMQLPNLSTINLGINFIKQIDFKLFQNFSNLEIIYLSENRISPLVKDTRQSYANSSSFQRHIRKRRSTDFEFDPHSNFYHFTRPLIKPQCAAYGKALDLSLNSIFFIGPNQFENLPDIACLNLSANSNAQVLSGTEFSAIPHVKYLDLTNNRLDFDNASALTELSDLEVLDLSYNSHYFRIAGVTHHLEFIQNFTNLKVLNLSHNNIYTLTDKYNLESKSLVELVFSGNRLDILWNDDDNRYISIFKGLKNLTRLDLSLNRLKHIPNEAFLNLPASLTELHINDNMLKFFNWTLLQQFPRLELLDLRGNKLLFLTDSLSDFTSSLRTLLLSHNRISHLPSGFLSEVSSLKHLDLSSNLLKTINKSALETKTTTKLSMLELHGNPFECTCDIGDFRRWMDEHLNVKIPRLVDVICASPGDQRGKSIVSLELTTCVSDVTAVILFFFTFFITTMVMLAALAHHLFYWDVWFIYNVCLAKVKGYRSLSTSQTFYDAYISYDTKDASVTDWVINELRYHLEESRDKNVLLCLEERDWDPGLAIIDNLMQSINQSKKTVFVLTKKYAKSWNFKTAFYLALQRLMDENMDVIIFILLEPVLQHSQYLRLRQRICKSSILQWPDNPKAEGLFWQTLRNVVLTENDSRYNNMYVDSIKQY
How it was run: as §1

Row | Structure (SMILES) | IC50 (human TLR7) [nM] | IC50 (human TLR8) [nM]
1 | CNCC(=O)N1CCC(c2ccc3[nH]c(-c4ccc(OC)c(OC)c4)c(C(C)C)c3c2)CC1 [Example 256, 1-(4-(2-(3,4-dimethoxyphenyl)-3-isopropyl-1H-indol-5-yl)piperidin-1-yl)-2-(methylamino)ethan-1-one] | 11 | 35
2 | COc1ccc(-c2[nH]c3ccc(C4CCN(C(=O)CN5CCC[C@H](C(=O)NCC#N)C5)CC4)cc3c2C(C)C)cc1OC [Example 297, (S)—N-(cyanomethyl)-1-(2-(4-(2-(3,4-dimethoxyphenyl)-3-isopropyl-1H-indol-5-yl)piperidin-1-yl)-2-oxoethyl)piperidine-3-carboxamide] | 48 | 19
3 | COc1ccc(-c2[nH]c3ccc(C4CCN(C(=O)CN5CCC[C@H](C(=O)N6CCCC(O)C6)C5)CC4)cc3c2C(C)C)cc1OC (stereo partly drawn) [Example 292, 1-(4-(2-(3,4-dimethoxyphenyl)-3-isopropyl-1H-indol-5-yl)piperidin-1-yl)-2-((3S)-3-(3-hydroxypiperidine-1-carbonyl)piperidin-1-yl)ethan-1-one] | 22 | 22
4 | COc1ccc(-c2[nH]c3ccc(C4CCN(C(=O)CN5CCC[C@H](C(=O)N6CCC(CCO)CC6)C5)CC4)cc3c2C(C)C)cc1OC [Example 291, (S)-1-(4-(2-(3,4-dimethoxyphenyl)-3-isopropyl-1H-indol-5-yl)piperidin-1-yl)-2-(3-(4-(2-hydroxyethyl)piperidine-1-carbonyl)piperidin-1-yl)ethan-1-one] | 36 | 17
5 | COc1ccc(-c2[nH]c3ccc(C4CCN(C(=O)CN5CCC[C@H](C(=O)NCC(N)=O)C5)CC4)cc3c2C(C)C)cc1OC [Example 298, (S)—N-(2-amino-2-oxoethyl)-1-(2-(4-(2-(3,4-dimethoxyphenyl)-3-isopropyl-1H-indol-5-yl)piperidin-1-yl)-2-oxoethyl)piperidine-3-carboxamide] | 47 | 27
6 | COc1ccc(-c2[nH]c3ccc(C4CCN(CC(=O)N5CCCC(CO)C5)CC4)cc3c2C(C)C)cc1OC (stereo not shown) [Example 275, 2-(4-(2-(3,4-dimethoxyphenyl)-3-isopropyl-1H-indol-5-yl)piperidin-1-yl)-1-(3-(hydroxymethyl)piperidin-1-yl)ethan-1-one] | 17 | 22
7 | COc1ccc(-c2[nH]c3ccc(C4CCN(C(=O)CN5CCC[C@@H](C(=O)NCC(N)=O)C5)CC4)cc3c2C(C)C)cc1OC [Example 309, (R)—N-(2-amino-2-oxoethyl)-1-(2-(4-(2-(3,4-dimethoxyphenyl)-3-isopropyl-1H-indol-5-yl)piperidin-1-yl)-2-oxoethyl)piperidine-3-carboxamide] | 31 | 59
8 | COc1ccc(-c2[nH]c3ccc(C4CCN(Cc5cnc(C)[nH]5)CC4)cc3c2C(C)C)cc1OC [Example 266, 2-(3,4-dimethoxyphenyl)-3-isopropyl-5-(1-((2-methyl-1H-imidazol-5-yl)methyl)piperidin-4-yl)-1H-indole] | 48 | 20
9 | COc1ccc(-c2[nH]c3ccc(C4CCN(C(=O)CN5CCC[C@@H](C(=O)NCC#N)C5)CC4)cc3c2C(C)C)cc1OC [Example 308, (R)—N-(cyanomethyl)-1-(2-(4-(2-(3,4-dimethoxyphenyl)-3-isopropyl-1H-indol-5-yl)piperidin-1-yl)-2-oxoethyl)piperidine-3-carboxamide] | 37 | 41
10 | COc1ccc(-c2[nH]c3ccc(C4CCN(C(=O)CN5CCCC(CO)C5)CC4)cc3c2C(C)C)cc1OC (stereo not shown) [Example 249, 1-(4-(2-(3,4-dimethoxyphenyl)-3-isopropyl-1H-indol-5-yl)piperidin-1-yl)-2-(3-(hydroxymethyl)piperidin-1-yl)ethan-1-one] | 21 | 17
11 | COc1ccc(-c2[nH]c3ccc(C4CCN(C(=O)CN5CCOCC5)CC4)cc3c2C(C)C)cc1OC [Example 223, 1-(4-(2-(3,4-dimethoxyphenyl)-3-isopropyl-1H-indol-5-yl)piperidin-1-yl)-2-morpholinoethan-1-one] | 48 | 98
